Active and inactive are the calls of the source.
Key:
[1] = molecular target: 5-hydroxytryptamine receptor 2A (Mus musculus, UniProt P35363); type: functional, cell-based;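 also: CHO-K1 cells with tagged receptor and beta-arrestin; agonist potency measured as compound-induced activation of the receptor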
[2] = molecular target: T1, Coagulation factor XII (Homo sapiens, UniProt P00748); assay: Factor XIIa Dose Response Confirmation from Single Well HTS. [Related pubchem assays (depositor defined):AID701]; type: functional
T1 sequence (P00748 whole entry): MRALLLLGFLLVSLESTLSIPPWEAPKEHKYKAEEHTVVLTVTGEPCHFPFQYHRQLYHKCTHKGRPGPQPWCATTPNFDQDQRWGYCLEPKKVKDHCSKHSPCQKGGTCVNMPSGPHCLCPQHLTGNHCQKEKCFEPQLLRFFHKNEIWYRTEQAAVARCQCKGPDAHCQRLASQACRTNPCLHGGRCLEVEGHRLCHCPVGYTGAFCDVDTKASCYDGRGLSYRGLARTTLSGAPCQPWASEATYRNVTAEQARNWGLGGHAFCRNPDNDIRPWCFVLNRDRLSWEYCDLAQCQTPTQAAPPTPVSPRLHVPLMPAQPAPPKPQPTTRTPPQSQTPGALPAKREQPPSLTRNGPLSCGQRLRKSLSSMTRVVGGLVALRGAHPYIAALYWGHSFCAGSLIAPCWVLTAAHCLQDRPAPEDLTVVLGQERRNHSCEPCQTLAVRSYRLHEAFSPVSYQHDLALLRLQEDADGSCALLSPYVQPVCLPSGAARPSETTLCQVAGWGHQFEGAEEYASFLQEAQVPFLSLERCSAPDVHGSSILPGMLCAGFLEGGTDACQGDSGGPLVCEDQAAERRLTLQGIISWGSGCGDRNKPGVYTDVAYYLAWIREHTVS

[3] = molecular target: Mu-type opioid receptor (Homo sapiens, UniProt P35372); type: functional, cell-based;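 also: U2OS cells with beta-arrestin recruitment to OPRM1 by beta-gal complementation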
Sequence of Mu-type opioid receptor (P35372 whole entry): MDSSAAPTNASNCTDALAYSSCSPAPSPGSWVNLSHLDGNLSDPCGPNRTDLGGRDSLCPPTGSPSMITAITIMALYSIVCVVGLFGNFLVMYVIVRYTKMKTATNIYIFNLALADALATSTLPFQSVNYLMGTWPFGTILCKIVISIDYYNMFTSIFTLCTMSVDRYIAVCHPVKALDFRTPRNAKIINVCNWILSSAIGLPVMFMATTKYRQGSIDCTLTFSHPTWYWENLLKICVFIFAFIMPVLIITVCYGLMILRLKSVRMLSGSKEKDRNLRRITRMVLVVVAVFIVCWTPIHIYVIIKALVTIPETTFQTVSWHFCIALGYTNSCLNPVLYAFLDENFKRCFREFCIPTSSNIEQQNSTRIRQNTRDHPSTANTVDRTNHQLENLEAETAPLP

[4] = viability loss in HEK293T cells – cell-based, cherry-picks, cytotoxicity control for HIV Vif inhibitor project, dose response (AID 652208); type: functional
[5] = molecular target: T2, Sentrin-specific protease 1 (Homo sapiens, UniProt Q9P0U3); assay: SENP1 catalytic domain blockers, concentration series – biochemical, kinetic FRET, dose response (AID 651697); type: functional; settings: read-out: IC50_Mean
T2 sequence (Q9P0U3 whole entry): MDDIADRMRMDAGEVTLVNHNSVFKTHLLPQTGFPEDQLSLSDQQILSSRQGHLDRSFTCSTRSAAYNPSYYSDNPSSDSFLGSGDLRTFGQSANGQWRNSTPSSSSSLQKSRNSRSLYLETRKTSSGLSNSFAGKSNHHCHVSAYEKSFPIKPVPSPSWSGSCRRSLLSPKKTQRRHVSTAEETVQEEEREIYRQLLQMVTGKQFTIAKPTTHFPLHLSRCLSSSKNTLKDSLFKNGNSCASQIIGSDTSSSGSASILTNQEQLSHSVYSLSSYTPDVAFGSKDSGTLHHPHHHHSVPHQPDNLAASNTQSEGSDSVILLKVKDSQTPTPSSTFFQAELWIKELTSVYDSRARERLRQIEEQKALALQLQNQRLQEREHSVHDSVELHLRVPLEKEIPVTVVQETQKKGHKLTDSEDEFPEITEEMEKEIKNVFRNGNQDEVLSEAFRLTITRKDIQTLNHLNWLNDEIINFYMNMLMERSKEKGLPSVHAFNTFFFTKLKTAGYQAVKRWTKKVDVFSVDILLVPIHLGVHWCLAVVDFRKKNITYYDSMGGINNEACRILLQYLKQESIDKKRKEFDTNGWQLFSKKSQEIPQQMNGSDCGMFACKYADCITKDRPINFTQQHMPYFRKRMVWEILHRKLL

[6] = molecular target: T2, Sentrin-specific protease 1; assay: Dose response confirmation of small molecule inhibitors of the catalytic domain of the SUMO protease, SENP1 in a FRET assay.; type: functional; settings: read-out: IC50_Mean
[7] = molecular target: T3, DNA repair and recombination protein RAD54-like (Homo sapiens, UniProt Q92698); assay: RAD54 Holliday junction migration blockers – biochemical, fluorescence, cherry-picked samples, dose series, confirmation (AID 651657); type: functional
T3 sequence (Q92698 whole entry): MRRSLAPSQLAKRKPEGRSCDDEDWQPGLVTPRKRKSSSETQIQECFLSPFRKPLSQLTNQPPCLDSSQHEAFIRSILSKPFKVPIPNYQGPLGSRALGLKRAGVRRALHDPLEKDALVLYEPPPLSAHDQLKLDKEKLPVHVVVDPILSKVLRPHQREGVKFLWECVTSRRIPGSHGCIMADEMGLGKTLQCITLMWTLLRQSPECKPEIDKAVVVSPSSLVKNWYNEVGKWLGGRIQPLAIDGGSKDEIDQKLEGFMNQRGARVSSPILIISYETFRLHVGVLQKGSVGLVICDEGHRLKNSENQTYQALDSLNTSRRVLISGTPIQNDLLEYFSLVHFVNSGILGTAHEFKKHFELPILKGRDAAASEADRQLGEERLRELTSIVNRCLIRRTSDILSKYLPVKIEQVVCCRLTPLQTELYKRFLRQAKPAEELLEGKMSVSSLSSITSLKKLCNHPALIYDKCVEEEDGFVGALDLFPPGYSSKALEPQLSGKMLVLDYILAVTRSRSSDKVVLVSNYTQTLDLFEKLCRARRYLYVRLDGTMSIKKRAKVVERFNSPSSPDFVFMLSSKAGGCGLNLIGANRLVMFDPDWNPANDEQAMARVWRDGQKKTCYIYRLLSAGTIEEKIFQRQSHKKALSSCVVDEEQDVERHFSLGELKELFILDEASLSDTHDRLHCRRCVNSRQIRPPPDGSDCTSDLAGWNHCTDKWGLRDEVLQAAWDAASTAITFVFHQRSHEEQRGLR

[8] = molecular target: Hepatocyte nuclear factor 4-alpha (Homo sapiens, UniProt P41235); type: functional, cell-based;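 also: biochemical luminescence-based dose-response counterscreen measuring inhibition of HNF4 dimerization, run alongside a screen for blockers of ABHD5–perilipin-5 interaction; split luciferase complementation of HNF4 fusion proteins in cell lysate measuring dimerization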
Sequence of Hepatocyte nuclear factor 4-alpha (P41235 whole entry, the tested form may be a part): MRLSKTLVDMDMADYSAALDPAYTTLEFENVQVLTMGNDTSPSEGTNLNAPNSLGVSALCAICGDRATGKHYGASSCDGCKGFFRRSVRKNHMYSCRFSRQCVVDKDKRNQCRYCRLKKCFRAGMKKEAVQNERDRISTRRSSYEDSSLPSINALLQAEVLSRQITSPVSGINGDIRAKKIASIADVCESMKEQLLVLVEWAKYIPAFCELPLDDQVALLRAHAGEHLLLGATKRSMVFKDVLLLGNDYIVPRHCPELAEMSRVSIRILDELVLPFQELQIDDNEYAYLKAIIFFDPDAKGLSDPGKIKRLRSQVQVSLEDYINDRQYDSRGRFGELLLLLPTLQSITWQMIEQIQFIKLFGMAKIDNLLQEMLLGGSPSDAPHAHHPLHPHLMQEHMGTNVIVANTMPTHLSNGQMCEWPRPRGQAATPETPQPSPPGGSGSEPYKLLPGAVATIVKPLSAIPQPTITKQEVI

[9] = molecular target: T4, DNA repair protein RAD52 homolog (Homo sapiens, UniProt P43351); type: functional, biochemical
T4 sequence (P43351 whole entry): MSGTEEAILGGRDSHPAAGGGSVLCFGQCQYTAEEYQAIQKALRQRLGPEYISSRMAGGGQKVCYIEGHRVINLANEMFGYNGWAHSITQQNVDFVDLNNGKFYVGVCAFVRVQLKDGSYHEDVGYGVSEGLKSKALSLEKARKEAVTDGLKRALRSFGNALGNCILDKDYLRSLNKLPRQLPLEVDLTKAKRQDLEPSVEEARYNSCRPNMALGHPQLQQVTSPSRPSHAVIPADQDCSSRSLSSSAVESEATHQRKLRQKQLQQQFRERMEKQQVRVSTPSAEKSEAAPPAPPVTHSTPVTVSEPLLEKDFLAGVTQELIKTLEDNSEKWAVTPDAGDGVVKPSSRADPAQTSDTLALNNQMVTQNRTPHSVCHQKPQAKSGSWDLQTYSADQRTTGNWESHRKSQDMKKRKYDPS

[10] = molecular target: T5, Rac GTPase-activating protein 1 (Homo sapiens, UniProt Q9H0H5); assay: blockers of MgcRacGAP-driven Rac1 GTP hydrolysis – biochemical, ADP Hunter fluorescence, primary and confirmatory, confirmation (AID 624330); type: functional
T5 sequence (Q9H0H5 whole entry): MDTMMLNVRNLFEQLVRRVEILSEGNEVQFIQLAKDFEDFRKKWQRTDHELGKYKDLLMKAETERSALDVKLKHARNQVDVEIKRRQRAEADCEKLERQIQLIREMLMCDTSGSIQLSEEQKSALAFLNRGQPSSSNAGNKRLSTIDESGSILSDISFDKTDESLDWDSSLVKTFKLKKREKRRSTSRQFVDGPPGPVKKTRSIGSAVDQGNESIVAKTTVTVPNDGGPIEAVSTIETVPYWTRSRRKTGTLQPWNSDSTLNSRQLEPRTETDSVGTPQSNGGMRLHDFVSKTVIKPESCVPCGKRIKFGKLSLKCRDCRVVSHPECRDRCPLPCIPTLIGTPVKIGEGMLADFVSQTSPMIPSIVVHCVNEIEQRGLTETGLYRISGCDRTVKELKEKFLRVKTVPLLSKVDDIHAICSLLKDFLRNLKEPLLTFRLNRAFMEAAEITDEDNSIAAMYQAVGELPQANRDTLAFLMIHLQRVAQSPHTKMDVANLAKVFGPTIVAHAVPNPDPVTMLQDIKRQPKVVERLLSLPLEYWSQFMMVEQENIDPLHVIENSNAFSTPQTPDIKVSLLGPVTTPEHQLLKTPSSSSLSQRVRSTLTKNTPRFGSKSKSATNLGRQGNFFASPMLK

[11] = cytotoxicity toward MDA-MB-231 breast cancer cells – cell-based, CellTiter-Glo luminescence, cherry-pick, cytotoxicity control for RAD54 inhibitor project, dose response (AID 651692); type: functional
[12] = viability loss in HeLa cells – cytotoxicity control for MgcRacGAP inhibitor project, dose response (AID 624300); type: functional
[13] = molecular target: T6, Histone-lysine N-methyltransferase NSD2 (Homo sapiens, UniProt O96028); type: biochemical
T6 sequence (O96028 whole entry): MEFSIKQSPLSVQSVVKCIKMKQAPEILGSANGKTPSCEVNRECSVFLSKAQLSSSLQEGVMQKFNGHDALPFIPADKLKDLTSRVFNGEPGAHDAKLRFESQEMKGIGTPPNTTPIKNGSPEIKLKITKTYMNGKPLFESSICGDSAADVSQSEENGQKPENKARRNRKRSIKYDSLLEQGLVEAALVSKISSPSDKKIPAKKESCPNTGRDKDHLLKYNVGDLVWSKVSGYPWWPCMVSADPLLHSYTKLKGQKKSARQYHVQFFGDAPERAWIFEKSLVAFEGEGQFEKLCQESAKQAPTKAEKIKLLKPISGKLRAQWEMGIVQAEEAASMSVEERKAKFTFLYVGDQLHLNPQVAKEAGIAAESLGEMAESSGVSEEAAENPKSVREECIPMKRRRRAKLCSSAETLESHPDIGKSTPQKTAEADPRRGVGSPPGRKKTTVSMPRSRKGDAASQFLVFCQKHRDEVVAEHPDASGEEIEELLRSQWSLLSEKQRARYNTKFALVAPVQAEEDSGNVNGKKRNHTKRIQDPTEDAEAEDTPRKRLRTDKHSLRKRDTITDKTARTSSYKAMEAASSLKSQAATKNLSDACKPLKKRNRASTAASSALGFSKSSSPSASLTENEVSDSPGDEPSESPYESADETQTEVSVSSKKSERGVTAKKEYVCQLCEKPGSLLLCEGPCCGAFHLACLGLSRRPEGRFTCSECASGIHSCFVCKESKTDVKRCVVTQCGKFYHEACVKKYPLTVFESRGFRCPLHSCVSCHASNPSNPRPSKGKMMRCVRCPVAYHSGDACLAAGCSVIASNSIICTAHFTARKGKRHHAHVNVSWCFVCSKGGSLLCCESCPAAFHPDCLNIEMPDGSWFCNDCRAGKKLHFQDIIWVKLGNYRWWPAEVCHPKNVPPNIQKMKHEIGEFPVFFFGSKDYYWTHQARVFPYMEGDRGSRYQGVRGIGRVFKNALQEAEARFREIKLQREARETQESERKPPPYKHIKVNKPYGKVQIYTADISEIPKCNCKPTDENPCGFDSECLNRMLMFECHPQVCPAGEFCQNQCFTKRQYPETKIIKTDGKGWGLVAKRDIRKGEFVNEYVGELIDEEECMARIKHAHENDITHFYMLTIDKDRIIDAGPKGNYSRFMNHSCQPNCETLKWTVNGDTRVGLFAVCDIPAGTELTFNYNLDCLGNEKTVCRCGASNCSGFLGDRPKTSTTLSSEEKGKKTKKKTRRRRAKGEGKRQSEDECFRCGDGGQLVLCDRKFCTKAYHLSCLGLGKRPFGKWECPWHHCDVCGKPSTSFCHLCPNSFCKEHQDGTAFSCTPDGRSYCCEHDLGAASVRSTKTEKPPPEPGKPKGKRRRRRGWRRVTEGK

[14] = molecular target: T7, Probable nicotinate-nucleotide adenylyltransferase (Staphylococcus aureus (strain N315), UniProt P65502); type: functional, Staphylococcus aureus subsp. aureus N315; settings: read-out: IC50_Mean;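 as to IC50 Mean: confirmatory dose-response retesting of NadD inhibitor hits first found in an ultra-high-throughput screen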
T7 sequence (P65502 whole entry): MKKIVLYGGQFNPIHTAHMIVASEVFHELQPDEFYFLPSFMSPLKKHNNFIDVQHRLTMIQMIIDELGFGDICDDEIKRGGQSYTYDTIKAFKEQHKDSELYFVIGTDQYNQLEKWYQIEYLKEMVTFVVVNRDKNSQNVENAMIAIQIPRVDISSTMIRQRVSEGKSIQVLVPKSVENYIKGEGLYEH

[15] = molecular target: T7, Probable nicotinate-nucleotide adenylyltransferase; type: functional, Staphylococcus aureus subsp. aureus N315
[16] = molecular target: Genome polyprotein (dengue virus type 2, UniProt P29990); assay: flavivirus cap methylation enzyme inhibition – biochemical, confirmation dose response, primary screen (AID 588689); type: functional
Sequence of Genome polyprotein (P29990 2492-3391 limits assumed): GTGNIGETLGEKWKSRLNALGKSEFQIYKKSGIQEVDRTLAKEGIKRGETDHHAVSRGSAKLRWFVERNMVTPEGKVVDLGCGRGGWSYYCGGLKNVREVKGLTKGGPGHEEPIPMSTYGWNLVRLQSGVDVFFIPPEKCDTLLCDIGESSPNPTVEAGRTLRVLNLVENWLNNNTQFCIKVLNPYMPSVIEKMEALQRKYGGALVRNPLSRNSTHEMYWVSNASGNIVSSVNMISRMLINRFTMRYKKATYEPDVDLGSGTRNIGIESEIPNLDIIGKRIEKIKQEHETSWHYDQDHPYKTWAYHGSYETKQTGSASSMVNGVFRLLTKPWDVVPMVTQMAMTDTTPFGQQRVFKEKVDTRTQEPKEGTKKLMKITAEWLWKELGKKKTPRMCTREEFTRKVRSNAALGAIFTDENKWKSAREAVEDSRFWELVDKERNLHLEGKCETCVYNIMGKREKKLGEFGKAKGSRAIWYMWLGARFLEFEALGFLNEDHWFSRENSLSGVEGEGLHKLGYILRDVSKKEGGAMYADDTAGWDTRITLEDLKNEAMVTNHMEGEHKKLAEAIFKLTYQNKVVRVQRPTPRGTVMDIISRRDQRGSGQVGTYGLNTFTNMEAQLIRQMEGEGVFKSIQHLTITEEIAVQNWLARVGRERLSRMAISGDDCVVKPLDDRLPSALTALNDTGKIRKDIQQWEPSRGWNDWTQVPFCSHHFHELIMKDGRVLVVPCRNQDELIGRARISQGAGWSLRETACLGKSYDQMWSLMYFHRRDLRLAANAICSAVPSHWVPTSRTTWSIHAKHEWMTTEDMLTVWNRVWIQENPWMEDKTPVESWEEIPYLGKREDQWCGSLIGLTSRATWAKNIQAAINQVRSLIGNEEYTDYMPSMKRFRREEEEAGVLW

[17] = molecular target: T8, Beta-lactamase (Pseudomonas aeruginosa, UniProt Q79MP6); assay: […] counterscreen for selective VIM-2 inhibitors: dose response biochemical high throughput screening assay to identify inhibitors of IMP-1 metallo-beta-lactamase.
T8 sequence (Q79MP6 whole entry): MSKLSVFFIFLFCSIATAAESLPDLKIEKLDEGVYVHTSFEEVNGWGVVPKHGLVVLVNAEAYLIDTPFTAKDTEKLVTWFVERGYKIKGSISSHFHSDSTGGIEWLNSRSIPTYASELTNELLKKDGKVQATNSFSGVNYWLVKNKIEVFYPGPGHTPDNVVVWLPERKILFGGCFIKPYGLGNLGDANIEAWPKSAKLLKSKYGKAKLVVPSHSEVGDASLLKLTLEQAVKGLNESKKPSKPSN

[18] = molecular target: Beta-lactamase (Salmonella choleraesuis (strain SC-B67), UniProt Q5J463); assay: Epi-absorbance-based counterscreen for selective VIM-2 inhibitors: dose response biochemical high throughput screening assay to identify inhibitors of TEM-1 serine-beta-lactamase.
Sequence of Beta-lactamase (Salmonella choleraesuis (strain SC-B67), UniProt Q5J463) (Q5J463 whole entry): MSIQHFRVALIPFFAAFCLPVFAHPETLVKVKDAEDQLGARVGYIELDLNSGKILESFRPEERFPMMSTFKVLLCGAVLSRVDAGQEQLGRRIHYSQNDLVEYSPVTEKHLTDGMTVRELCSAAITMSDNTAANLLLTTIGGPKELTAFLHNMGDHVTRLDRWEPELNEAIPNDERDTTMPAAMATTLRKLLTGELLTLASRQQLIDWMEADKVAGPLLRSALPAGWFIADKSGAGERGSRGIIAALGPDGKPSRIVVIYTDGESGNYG

[19] = molecular target: T9, Beta Lactamase (Pseudomonas aeruginosa, UniProt Q932Y6); assay: concentration-dependent VIM-2 enzyme inhibition – biochemical, epi-absorbance readout, selective inhibitors, dose response (AID 1919)
T9 sequence (Q932Y6 whole entry): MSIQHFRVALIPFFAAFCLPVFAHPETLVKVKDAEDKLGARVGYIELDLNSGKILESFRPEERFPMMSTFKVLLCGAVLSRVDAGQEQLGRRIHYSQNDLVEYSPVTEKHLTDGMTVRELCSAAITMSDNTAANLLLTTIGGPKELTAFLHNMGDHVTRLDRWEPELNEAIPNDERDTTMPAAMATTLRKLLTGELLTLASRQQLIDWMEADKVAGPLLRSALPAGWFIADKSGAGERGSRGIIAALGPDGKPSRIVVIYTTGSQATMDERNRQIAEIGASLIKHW

[20] = molecular target: T8, Beta-lactamase; assay: inhibition of IMP-1 beta-lactamase activity – biochemical, epi-absorbance, selectivity assay for VIM-2 inhibitor project, dose response (AID 1920)
[21] = molecular target: T9, Beta Lactamase; assay: VIM-2 CCF2 hydrolysis inhibition, assay artifact filter – biochemical, FRET readout, CCF2 substrate, artefact control for selective VIM-2 inhibitor project, dose response (AID 1926)

Sequence of 5-hydroxytryptamine receptor 2A (P35363 whole entry): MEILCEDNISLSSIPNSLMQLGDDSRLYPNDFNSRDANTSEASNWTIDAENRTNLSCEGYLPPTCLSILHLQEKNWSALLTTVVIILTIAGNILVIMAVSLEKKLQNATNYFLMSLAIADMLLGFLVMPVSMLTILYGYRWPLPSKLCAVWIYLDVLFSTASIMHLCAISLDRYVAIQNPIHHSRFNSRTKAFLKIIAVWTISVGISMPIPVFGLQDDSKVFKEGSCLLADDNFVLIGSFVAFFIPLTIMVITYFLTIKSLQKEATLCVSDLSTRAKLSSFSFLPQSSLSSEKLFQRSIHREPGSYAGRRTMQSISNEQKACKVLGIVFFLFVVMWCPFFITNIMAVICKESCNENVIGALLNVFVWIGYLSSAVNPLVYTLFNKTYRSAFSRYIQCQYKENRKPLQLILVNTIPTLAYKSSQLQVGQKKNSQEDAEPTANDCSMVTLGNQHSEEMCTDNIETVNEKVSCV

CCOC(=O)N1CCN(C/C(C)=C/c2ccccc2)CC1
EC50 [1]: 11.5 µM (inactive) | IC50 [2]: > 50 µM (inactive) | EC50 [3]: 92.5 µM (inactive)

CCOC(=O)C1CCN(S(=O)(=O)c2cccc(-c3cn4cc(C)ccc4n3)c2)CC1
AC50 [4]: > 52 µM (inactive)

COc1ccc(N2C(=O)C3C(C2=O)C(C(=O)c2ccc(Cl)cc2)N2CCCC32)cc1 (stereo unspecified)
IC50 [5]: 5.56 µM (active) | IC50 [6]: 4.36 µM (active)

COc1cc(C)c2sc3ccccc3c(=O)c2c1NCCN(C)C
AC50 [7]: 2.7 µM (active) | IC50 [8]: 36.1 µM (inactive) | AC50 [9]: 1.07 µM (active) | IC50 [10]: 71.4 µM (active) | AC50 [11]: 33.6 µM (active) | CC50 [12]: 53.3 µM (active) | AC50 [13]: 5.29 µM (active)

Cc1ccc(NS(=O)(=O)c2ccc(N/N=C/c3ccccc3OCC(=O)O)c([N+](=O)[O-])c2)c(C)c1
IC50 [14]: 23.3 µM (active) | IC50 [15]: 6.32 µM (active) | IC50 [16]: 43.9 µM (active)

COc1ccc(OC)c(/C=N/NC(=O)CC2C(=O)NN=C2C)c1 (stereo unspecified)
IC50 [17]: > 59.6 µM (inactive) | IC50 [18]: > 59.6 µM (inactive) | IC50 [19]: 6.1 µM (active) | IC50 [20]: > 59.6 µM (inactive) | IC50 [21]: 2.13 µM (active)
